Data taken from patent US20210236582A1, “ANTIMICROBIAL COMPOSITION BASED ON POLYPHENOLS AND POLYSACCHARIDES, METHOD FOR PREPARING THEREOF AND USE OF THE SAME” (priority 2018, published 2021).
Values after ≈ are worked out from the molar mass of the structure shown.

Tests used:
in vitro = details: dog
[1] = test system: Influenza A/Puerto-Rico/8/34 (H1N1) virus; type: cell-based; details: for Antiviral activity against A/PR8 (H1N1) virus ΔlgTCID50 av: pronounced antiviral activity ≥ 1.50
MDCK ECACC cell line = details: MDCK ECACC cells, 48 h incubation, MTS

Row | Compound | CC50 at 48 h (in vitro) [µg/mL] | Antiviral activity against A/PR8 (H1N1) virus ΔlgTCID50 av [1] | Antiviral activity against A/PR8 (H1N1) virus IC50 av ([1]; MDCK ECACC cells, assessed after 48 h by CPE and HAR) | Cytotoxicity CC50 av (MDCK ECACC cell line) [µg/mL]
1 | Cc1cc2c(C(C)C)c(O)c(O)cc2c(O)c1-c1c(C)cc2c(C(C)C)c(O)c(O)cc2c1O [Apogossypol, apogossypol] | 9.4 (≈ 20.3 µM) | 0.50 | – | –
2 | gossypol acetic acid | – | 1.32 | 0.0012 | 3.9
